How the values were obtained:
[1] = tested on: LS180 (human colon cancer cell); test: Uptake experiment in tumor cells (LS180); assay type: cell-based; conditions: for uptake, percent dose converted to 100,000 cells: 0.5 μCi, mean ± S.D.
Method: (§1) (i) LS180 (Human Colon Cancer Cell), SHIN-III (Human Ovary Cancer Cell) and U87MG (Glioma)
(§2) A commercially available medium, RPMI1640 (Nissui, 5.1 g), was dissolved in extra pure water (500 ml), autoclaved, and added with L-glutamine (0.15 g), Meylon (7% aqueous sodium hydrogencarbonate, a pharmaceutical preparation for injection, 14 ml) and FBS (55 ml) in a clean bench to prepare a medium. Cells were cultured in this medium.
(§3) Cells cryopreserved in a medium containing 10% DMSO were thawed, transferred to a 15-ml Falcon tube, and added with PBS to a volume of 5 ml. The mixture was centrifuged at 1300 rpm for 5 minutes. The supernatant was removed by suction, and the precipitates were suspended in PBS (5 ml). The suspension was centrifuged again at 1300 rpm for 5 minutes. The supernatant was removed by suction, and the precipitates were suspended in a medium (10 ml), inoculated in a 10-cm dish and left standing at 37° C. in a 5% CO2 incubator.
(§4) After 3 days, when the cells were proliferated to 80 to 90% of the 10-cm dish, the cells were subcultured in a 15-cm dish.
(§5) The 10-cm dish was taken out from the incubator, and the supernatant was removed by suction. The cells were washed three times with PBS, added with trypsin-EDTA (0.05% trypsin, 0.53 mM EDTA tetrasodium salt, 1 ml) and PBS (1 ml) and left standing in a CO2 incubator for 10 minutes. The dish was taken out from the incubator, and separation of the cells was observed. Then, the cells were transferred to a 15-ml Falcon tube. The cells were added with PBS to a volume of 5 ml and centrifuged at 1300 rpm for 5 minutes, and the supernatant was removed by suction. The precipitates were suspended in PBS (5 ml) and centrifuged at 1300 rpm for 5 minutes, and the supernatant was removed by suction. The precipitates were suspended in a medium (8 ml), and inoculated in a volume of 4 ml each to two of 15-cm dishes, to which the medium (16 ml) was added beforehand, and left standing at 37° C. in a 5% CO2 incubator.
(§6) Two days before the uptake experiment, the cells were inoculated on a 24-well plate ([…] of cell-suspended medium/well, 5 wells/plate per one type of cell). […] For the 4 wells to which the compound of the present invention was added, the cells were separated with 0.2 N NaOH and subjected to measurement of radioactivity. For the remaining 1 well, trypsin-EDTA was added to separate the cells, and the number of cells was counted by using a blood cell counter. Percent doses, which were converted to values for 100,000 cells based on the number of cells and radioactivity, and ratios relative to the normal cells (NIH3T3) were calculated. […]

[2] = tested on: SHIN-III (human ovary cancer cell); test: Uptake experiment in tumor cells (SHIN-III); assay type: cell-based; conditions: for uptake, percent dose converted to 100,000 cells: SHIN-III, 0.5 μCi, mean ± S.D.
Method: as §1, §2, §3, §4, §5, §6

[3] = tested on: U87MG (glioma); test: Uptake experiment in tumor cells (U87MG); assay type: cell-based; conditions: for uptake, percent dose converted to 100,000 cells: U87MG, 0.5 μCi, mean ± S.D.
Method: as §1, §2, §3, §4, §5, §6

[4] = tested on: NIH3T3 (fibroblast, control); test: Uptake experiment in normal control cells (NIH3T3); assay type: cell-based; conditions: 0.5 μCi, mean ± S.D.
Method: (ii) NIH3T3 (Fibroblast, Control)
as §2, with “DMEM medium (Nissui)” for “medium, RPMI1640 (Nissui, 5.1 g),”
as §3
After 1 week, when the cells were proliferated to 80 to 90% of the 10-cm dish, the cells were subcultured in a 15-cm dish.
The 10-cm dish was taken out from the incubator, and the supernatant was removed by suction. The cells were washed three times with PBS, added with trypsin-EDTA (0.05% trypsin, 0.53 mM EDTA tetrasodium salt, 1 ml) and PBS (1 ml) and left standing in a CO2 incubator for 10 minutes. The dish was taken out from the incubator, and separation of the cells was observed. Then, the cells were transferred to a 15-ml Falcon tube. […]
as §6

[5] = tested on: SHIN-III human ovary cancer cells (tumor tissue vs muscle tissue); test: Distribution experiment in vivo, nude mice transplanted with SHIN-III; conditions: 18.5 kBq via caudal vein, 5, 10 and 30 minutes, FIG. 1
Method: 1.0×10^6 cells of SHIN-III human ovary cancer cells were subcutaneously inoculated in the femoral region of nude mice (male, 5-week old). […] After 5 minutes, 10 minutes and 30 minutes, the mice were sacrificed, and the weight and radioactivity of each organ were measured.

SMILES: CCn1c(=O)/c(=C2\Sc3ccccc3N2Cc2ccc([125I])cc2)s/c1=C\c1cccc[n+]1CC [the compound of the present invention]
- uptake, percent dose converted to 100,000 cells ([1]; LS180, after 30 minutes): 3.37 ± 0.31 % dose/100000 cells
- uptake, percent dose converted to 100,000 cells ([1]; LS180, after 1 hour): 5.33 ± 0.43 % dose/100000 cells
- uptake, percent dose converted to 100,000 cells ([1]; LS180, after 3 hours): 10.2 ± 0.97 % dose/100000 cells
- uptake ratio relative to the normal cells (NIH3T3) ([1]; LS180 vs NIH3T3): about three
- uptake ratio relative to the normal cells (NIH3T3) ([2]; SHIN-III vs NIH3T3): about seven
- uptake, percent dose converted to 100,000 cells ([2]; after 30 minutes): 6.26 ± 0.73 % dose/100000 cells
- uptake, percent dose converted to 100,000 cells ([2]; after 1 hour): 11.7 ± 1.16 % dose/100000 cells
- uptake, percent dose converted to 100,000 cells ([2]; after 3 hours): 25.2 ± 2.42 % dose/100000 cells
- uptake ratio relative to the normal cells (NIH3T3) ([3]; U87MG vs NIH3T3): about 7 times
- uptake, percent dose converted to 100,000 cells ([3]; after 30 minutes): 3.19 ± 1.86 % dose/100000 cells
- uptake, percent dose converted to 100,000 cells ([3]; after 1 hour): 3.07 ± 0.09 % dose/100000 cells
- uptake, percent dose converted to 100,000 cells ([3]; after 3 hours): 5.32 ± 0.70 % dose/100000 cells
- uptake, percent dose converted to 100,000 cells ([4]; after 30 minutes): 1.40 ± 0.03 % dose/100000 cells
- uptake, percent dose converted to 100,000 cells ([4]; after 1 hour): 2.12 ± 0.14 % dose/100000 cells
- uptake, percent dose converted to 100,000 cells ([4]; after 3 hours): 3.34 ± 0.18 % dose/100000 cells
- accumulation in the tumor tissue and muscle tissue [5]: accumulate in a higher concentration in the tumor tissue than in the muscle

Reference: patent US7326403B2, “Radioactive iodine-labeled compound” (FUJIFILM Corporation, priority 2003, dated 2008)
